Reference: patent US9650423B2, “Long peptides of 22-45 amino acid residues that induce and/or enhance antigen specific immune responses” (priority 2000, dated 2017)
Read-outs that look alike come from different tables or passages of the source. Residues, ends and D or L forms follow the SMILES beside them. No end group written: not given here.

Experiments:
HLA-DR4 (DRB*0401) = assay: HLA-DR-peptide binding assay; set-up: species or system human
healthy donor PBMC = assay type: cell-based, human; settings: for mean percentage of wells exceeding medium control + 3 * SD: 10 μg/ml, day 6, two assays
HLA-DR3 (DRB*0301) = assay: HLA-DR-peptide binding assay; set-up: species or system human
HLA-DR2 (DRB1*0201) = assay: HLA-DR-peptide binding assay; set-up: species or system human
HLA-DR1 (DRB*0101) = target: T1, HLA-DR1 (DRB*0101) (Homo sapiens, UniProt P01903+P01911, A100R/D57E/F55L/F60I/F76Y/I96L/L162R/M171V/P40L/Q125E/R42F/V115G/Y59C); assay: biochemical; assay type: binding
T1 construct: endogenous in cells; host or cells: LG2.1 B-lymphoblastic cell line, homozygous for HLA-DR

[1] = tested on: HPV16 E7-specific T-helper clones; assay: HPV16 E7-specific Th-clones: proliferation and IFNγ production; assay type: cell-based, human; settings: for recognition by HLA-DQ2 restricted Th-clone, IFNγ secretion: Th-clone from HLA-DR3, DQ2 positive PBMC stimulated with peptide E722-56; for response of HLA-DR15 restricted Th-clone to pulsed APC: Th-clone from HLA-DR15, 4 and DQ6,7 positive PBMC raised against peptide E741-62
Description: Peptide-specific T-cell bulk cultures were generated as described previously (van der Burg et al., 1999) using either the E7 22-mer or E7 35-mer peptides. Specific proliferation was measured by incubation of 50,000 responders with an equal amount of irradiated (30Gy) APC (autologous PBMC unless indicated otherwise) and peptide or protein as indicated. E7-peptide and -protein-specific bulk T-cells were cloned by limiting dilution as described previously (van der Burg et al., 1999).
To determine specific excretion of cytokines, T-cell clones were stimulated by incubation of 50.000 T-cells with an equal amount of APC (30Gy) together with 10 μg/ml peptide, control peptide, E7 protein or control protein as indicated. After 24 hours of incubation, supernatant was harvested and replicate wells were pooled. Cytokine production was measured by Enzyme-Linked Immunosorbent Assay (ELISA) as described previously (van der Burg et al., 1999).

[2] = tested on: E7 49-57-specific CD8+ T cells; assay: Vaccination, H-2Db E7 49-57 tetramer staining of spleen cultures; assay type: in vivo, C57BL/6 mice; settings: B6 mice
Description: Immunization strategies. C57BL/6 mice were injected subcutaneously with either 50 μg E7^49-57 peptide or 150 μg E7^43-77 35-mer dissolved in PBS in order to achieve similar molar levels of the E7^49-57 CTL epitope in both cases. Combinations with various adjuvantia were tested. In the case of IFA and Montanide, the dissolved peptides were emulsified in 50% of these respective substances. ODN-CpG (50 μg/mouse), MPL (10 μg/mouse) and GM-CSF (4 μg/mouse) were all dissolved in PBS and mixed with the peptides before subcutaneous vaccination. The total injected volume was 200 μl/mouse.
T cell cultures. T cells were obtained from immunized mice by culturing spleen cells (5×10^6 cells/well of a 24-wells plate) in complete medium in the presence of 0.5×10^6 E7^49-57-expressing cells (tumor cell line 13.2) or, when indicated, in the presence of D1 cells.
Tetramer staining. Spleen cultures, stimulated with tumor cell line 13.2 for seven days, were transferred at an amount of 40×10^4 per well to 96-well V-bottom microtiter plates and washed twice with PBS/BSA 0.5%. Subsequently, PE-labelled E749-57-containing tetramer was added. After 30 minutes of incubation at room temperature, cells were washed twice with PBS/BSA 0.5% and incubated with FITC-labelled anti CD8b Ab for 30 minutes. Subsequently cells were washed twice in PBS/BSA 0.5%, suspended in PBS/BSA 0.5% containing Propidium Iodide (PI) (0.5) μg/ml) and transferred to tubes. Cell samples were analysed in a FACSCalibur flow cytometer (Becton Dickinson, San Jose, Calif., USA) using CellQuest software. A total of 20×10^4 events was analysed for fluorescence intensity. Debris was gated out using the PI staining and subsequently the CD8^+ fraction was gated. […] As a positive control the HPV16 E7 specific CTL clone 9.5 was used.

[3] = HPV16-E2 peptides, >70 represents undetectable binding, read-out: Binding affinity DR4, IC50
[4] = HPV16-E2 peptides, >70 represents undetectable binding, read-out: Binding affinity DR3, IC50
[5] = HPV16-E2 peptides, >70 represents undetectable binding, read-out: Binding affinity DR2, IC50
[6] = HPV16-E2 peptides, >70 represents undetectable binding, read-out: Binding affinity DR1, IC50

## CC[C@H](C)[C@H](NC(=O)[C@H](CCCNC(=N)N)NC(=O)CNC(=O)[C@H](CCCCN)NC(=O)[C@H](Cc1c[nH]cn1)NC(=O)[C@H](CO)NC(=O)[C@H](CO)NC(=O)[C@H](CC(N)=O)NC(=O)[C@@H](N)Cc1ccccc1)C(=O)N[C@@H](CC(N)=O)C(=O)N[C@@H](CS)C(=O)N[C@@H](CC(N)=O)C(=O)N[C@@H](CO)C(=O)N[C@@H](CC(N)=O)C(=O)N[C@H](C(=O)N[C@H](C(=O)N1CCC[C@H]1C(=O)N[C@H](C(=O)N[C@H](C(=O)N[C@@H](Cc1c[nH]cn1)C(=O)N[C@@H](CC(C)C)C(=O)N[C@@H](CCCCN)C(=O)NCC(=O)N[C@@H](CC(=O)O)C(=O)N[C@@H](C)C(=O)N[C@@H](CC(N)=O)C(=O)N[C@H](C(=O)N[C@@H](CC(C)C)C(=O)N[C@@H](CCCCN)C(=O)N[C@@H](CS)C(=O)O)[C@@H](C)O)C(C)C)[C@@H](C)CC)[C@@H](C)O)[C@@H](C)O [E2 271-300] (H-FNSSHKGRINCNSNTTPIVHLKGDANTLKC-OH; N-terminus and C-terminus assumed)
HLA-DR4 (DRB*0401); [3]
  IC50: > 70 µM
Healthy donor PBMC; donor D8
  mean percentage of wells exceeding medium control + 3 * SD: 88%
HLA-DR3 (DRB*0301); [4]
  IC50: 37 µM
HLA-DR2 (DRB1*0201); [5]
  IC50: 65 µM

## AIVTLTYDSEWQRDQFLSQVKIPKTITVSTGFMSI [E2 331-365]
HLA-DR1 (DRB*0101); [6]
  IC50: 8 µM
HLA-DR4 (DRB*0401); [3]
  IC50: 15 µM
Healthy donor PBMC; donor D3
  mean percentage of wells exceeding medium control + 3 * SD: 100%
Healthy donor PBMC; donor D7
  mean percentage of wells exceeding medium control + 3 * SD: 75%
HLA-DR3 (DRB*0301); [4]
  IC50: 10 µM
HLA-DR2 (DRB1*0201); [5]
  IC50: 20 µM

## E2 31-60: 30-mer, amino acids 31-60 of HPV16 E2 protein (DYWKHMRLECAIYYKAREMGFKHINHQVVP; UniProt P03120 31-60, looked up, fragment)
Healthy donor PBMC; donor D3
  mean percentage of wells exceeding medium control + 3 * SD: 81%
Healthy donor PBMC; donor D8
  mean percentage of wells exceeding medium control + 3 * SD: 88%

## E2 46-75: 30-mer, amino acids 46-75 of HPV16 E2 protein (AREMGFKHINHQVVPTLAVSKNKALQAIEL; UniProt P03120 46-75, looked up, fragment)
Healthy donor PBMC; donor D3
  mean percentage of wells exceeding medium control + 3 * SD: 88%
Healthy donor PBMC; donor D5
  mean percentage of wells exceeding medium control + 3 * SD: 81%
Healthy donor PBMC; donor D8
  mean percentage of wells exceeding medium control + 3 * SD: 94%

## E2 91-120: 30-mer, amino acids 91-120 of HPV16 E2 protein (KWTLQDVSLEVYLTAPTGCIKKHGYTVEVQ; UniProt P03120 91-120, looked up, fragment)
Healthy donor PBMC; donor D5
  mean percentage of wells exceeding medium control + 3 * SD: 94%
Healthy donor PBMC; donor D8
  mean percentage of wells exceeding medium control + 3 * SD: 75%

## E2 151-180: 30-mer, amino acids 151-180 of HPV16 E2 protein (QVDYYGLYYVHEGIRTYFVQFKDDAEKYSK; UniProt P03120 151-180, looked up, fragment)
Healthy donor PBMC; donor D3
  mean percentage of wells exceeding medium control + 3 * SD: 81%
Healthy donor PBMC; donor D8
  mean percentage of wells exceeding medium control + 3 * SD: 81%

## E2 166-195: 30-mer, amino acids 166-195 of HPV16 E2 protein (TYFVQFKDDAEKYSKNKVWEVHAGGQVILC; UniProt P03120 166-195, looked up, fragment)
Healthy donor PBMC; donor D3
  mean percentage of wells exceeding medium control + 3 * SD: 94%
Healthy donor PBMC; donor D5
  mean percentage of wells exceeding medium control + 3 * SD: 81%

## E7 22-56: long peptide, amino acids 22-56 of HPV16 E7 protein (LYCYEQLNDSSEEEDEIDGPAGQAEPDRAHYNIVT; UniProt P03129 22-56, looked up, fragment)
[1]
  recognition by HLA-DQ2 restricted Th-clone, IFNγ secretion: secreted IFNγ

## E7 30-50: peptide, amino acids 30-50 of HPV16 E7 (DSSEEEDEIDGPAGQAEPDRA; UniProt P03129 30-50, looked up, fragment)
[1]
  recognition by HLA-DQ2 restricted Th-clone, IFNγ secretion: recognized

## E7 35-50: core sequence, amino acids 35-50 of HPV16 E7 (EDEIDGPAGQAEPDRA)
[1]
  recognition by HLA-DQ2 restricted Th-clone, IFNγ secretion: recognized the core sequence

## E7 35-55: peptide, amino acids 35-55 of HPV16 E7 (EDEIDGPAGQAEPDRAHYNIV; UniProt P03129 35-55, looked up, fragment)
[1]
  recognition by HLA-DQ2 restricted Th-clone, IFNγ secretion: recognized

## E7 50-62: core sequence, amino acids 50-62 of HPV16 E7 (AHYNIVTFCCKCD)
[1]
  response of HLA-DR15 restricted Th-clone to pulsed APC: core sequence recognized

## E7 protein: recombinant HPV16-E7 protein produced in E. coli [reference compound]
[1]
  recognition by HLA-DQ2 restricted Th-clone, IFNγ secretion: secreted IFNγ
  response of HLA-DR15 restricted Th-clone to pulsed APC: specifically respond

## RAHYNIVTF (minimal 9 amino acid long CTL epitope) [E7 49-57, ID; NO, reference compound]
[2]; prime-boost, IFA
  E7 49-57-specific CD8+ T cell response: comparable to that after one vaccination
[2]; vaccinated once, IFA, responders
  CD8+ T cells stained with tetramers: ~5%
[2]; vaccinated once, IFA, spleens day 10
  mice responding to the vaccine (tetramer staining): 3 out of 9
[2]; vaccinated once, MPL
  number of responders: 4/9
[2]; vaccinated once, Montanide adjuvant
  E7 49-57-specific CTL response: no responses were observed
[2]; vaccinated once, ODN-CpG
  number of responders: 4/12
[2]; vaccinated once, combined with anti-CD40 antibody or GM-CSF
  E7 49-57-specific CTL response: no or minimal CTL responses

## SSEEEDEIDGPAGQAEPDRAHY [E7 31-52]
HLA-DR1 (DRB*0101); read-out: Binding DR1, IC50
  IC50: > 70 µM
HLA-DR4 (DRB*0401); HPV16-E7 22-mer peptides, >70 indicates undetectable binding, read-out: Binding DR4, IC50
  IC50: > 70 µM
HLA-DR3 (DRB*0301); HPV16-E7 22-mer peptides, >70 indicates undetectable binding, read-out: Binding DR3, IC50
  IC50: > 70 µM
HLA-DR2 (DRB1*0201); HPV16-E7 22-mer peptides, >70 indicates undetectable binding, read-out: Binding DR2, IC50
  IC50: > 70 µM

## SSTWHWTGHNVKHKSAIVTLTYDSEWQRDQ [E2 316-345]
HLA-DR1 (DRB*0101); [6]
  IC50: 6 µM
HLA-DR4 (DRB*0401); [3]
  IC50: > 70 µM
Healthy donor PBMC; donor D7
  mean percentage of wells exceeding medium control + 3 * SD: 94%
HLA-DR3 (DRB*0301); [4]
  IC50: 30 µM
HLA-DR2 (DRB1*0201); [5]
  IC50: 55 µM

## tetanus toxoid [TT, reference compound]
Healthy donor PBMC; donor D1
  mean percentage of wells exceeding medium control + 3 * SD: 100%
Healthy donor PBMC; donor D2
  mean percentage of wells exceeding medium control + 3 * SD: 100%
Healthy donor PBMC; donor D3
  mean stimulation index of all test wells of both assays: 25
  mean percentage of wells exceeding medium control + 3 * SD: 100%
Healthy donor PBMC; donor D4
  mean percentage of wells exceeding medium control + 3 * SD: 100%
Healthy donor PBMC; donor D5
  mean percentage of wells exceeding medium control + 3 * SD: 100%
Healthy donor PBMC; donor D6
  mean stimulation index of all test wells of both assays: 139
  mean percentage of wells exceeding medium control + 3 * SD: 100%
Healthy donor PBMC; donor D7
  mean percentage of wells exceeding medium control + 3 * SD: 100%
Healthy donor PBMC; donor D8
  mean stimulation index of all test wells of both assays: 59
  mean percentage of wells exceeding medium control + 3 * SD: 100%
Healthy donor PBMC; donors #3, 4, 5 and 7
  stimulation index (SI): 13.3-25
Healthy donor PBMC; donors #3 and 6
  stimulation index (SI): ≥ 100
